Key:
Assay in all cases: relative viability (nuclei count vs DMSO), 5 days (fraction); higher = more cells survive
Everolimus + Foretinib = compound: CO[C@H]1C[C@@H]2CC[C@@H](C)[C@@](O)(O2)C(=O)C(=O)N2CCCC[C@H]2C(=O)O[C@H]([C@H](C)C[C@@H]2CC[C@@H](OCCO)[C@H](OC)C2)CC(=O)[C@H](C)/C=C(\C)[C@@H](O)[C@@H](OC)C(=O)[C@H](C)C[C@H](C)/C=C/C=C/C=C/1C [Everolimus] + COc1cc2c(Oc3ccc(NC(=O)C4(C(=O)Nc5ccc(F)cc5)CC4)cc3F)ccnc2cc1OCCCN1CCOCC1 [Foretinib] (partner 0.25 µM)
Method in brief: (§1)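 Cells from lung cancer lines were seeded into 1536-well plates and, one day later, dosed by pin tool. Treatments were either a single drug or a fixed dose of an anchor drug with five library-drug doses (not always all listed) in √10 steps. After 5 days, nuclei were stained in a one-step fixation (final 0.05% Triton X-100, 1% formaldehyde, 1 ug/ml Hoechst) and counted on 4× images, and relative viability is the treated-to-vehicle nuclei ratio, as the median of duplicate plates.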

Everolimus + Alpelisib = compound: CO[C@H]1C[C@@H]2CC[C@@H](C)[C@@](O)(O2)C(=O)C(=O)N2CCCC[C@H]2C(=O)O[C@H]([C@H](C)C[C@@H]2CC[C@@H](OCCO)[C@H](OC)C2)CC(=O)[C@H](C)/C=C(\C)[C@@H](O)[C@@H](OC)C(=O)[C@H](C)C[C@H](C)/C=C/C=C/C=C/1C [Everolimus] + Cc1nc(NC(=O)N2CCC[C@H]2C(N)=O)sc1-c1ccnc(C(C)(C)C(F)(F)F)c1 [Alpelisib] (partner 2 µM)
Method in brief: as §1

Everolimus + Pemetrexed = compound: CO[C@H]1C[C@@H]2CC[C@@H](C)[C@@](O)(O2)C(=O)C(=O)N2CCCC[C@H]2C(=O)O[C@H]([C@H](C)C[C@@H]2CC[C@@H](OCCO)[C@H](OC)C2)CC(=O)[C@H](C)/C=C(\C)[C@@H](O)[C@@H](OC)C(=O)[C@H](C)C[C@H](C)/C=C/C=C/C=C/1C [Everolimus] + Nc1nc2[nH]cc(CCc3ccc(C(=O)N[C@@H](CCC(=O)O)C(=O)O)cc3)c2c(=O)[nH]1 [Pemetrexed] (partner 0.2 µM)
Method in brief: as §1

Everolimus + Olaparib = compound: CO[C@H]1C[C@@H]2CC[C@@H](C)[C@@](O)(O2)C(=O)C(=O)N2CCCC[C@H]2C(=O)O[C@H]([C@H](C)C[C@@H]2CC[C@@H](OCCO)[C@H](OC)C2)CC(=O)[C@H](C)/C=C(\C)[C@@H](O)[C@@H](OC)C(=O)[C@H](C)C[C@H](C)/C=C/C=C/C=C/1C [Everolimus] + O=C(c1cc(Cc2n[nH]c(=O)c3ccccc23)ccc1F)N1CCN(C(=O)C2CC2)CC1 [Olaparib] (partner 8 µM)
Method in brief: as §1

Cell Line	relative viability (Everolimus + Foretinib; first compound 0.01 µM)	relative viability (Everolimus + Foretinib; first compound 0.03162 µM)	relative viability (Everolimus + Foretinib; first compound 0.1 µM)	relative viability (Everolimus + Foretinib; first compound 0.3162 µM)	relative viability (Everolimus + Foretinib; first compound 1 µM)	relative viability (Everolimus + Alpelisib; first compound 0.01 µM)	relative viability (Everolimus + Alpelisib; first compound 0.03162 µM)	relative viability (Everolimus + Alpelisib; first compound 0.1 µM)	relative viability (Everolimus + Alpelisib; first compound 0.3162 µM)	relative viability (Everolimus + Alpelisib; first compound 1 µM)	relative viability (Everolimus + Pemetrexed; first compound 0.01 µM)	relative viability (Everolimus + Pemetrexed; first compound 0.03162 µM)	relative viability (Everolimus + Pemetrexed; first compound 0.1 µM)	relative viability (Everolimus + Pemetrexed; first compound 0.3162 µM)	relative viability (Everolimus + Pemetrexed; first compound 1 µM)	relative viability (Everolimus + Olaparib; first compound 0.01 µM)	relative viability (Everolimus + Olaparib; first compound 0.03162 µM)	relative viability (Everolimus + Olaparib; first compound 0.1 µM)	relative viability (Everolimus + Olaparib; first compound 0.3162 µM)	relative viability (Everolimus + Olaparib; first compound 1 µM)
SW 1573	0.584	0.647	0.589	0.58	0.52	0.449	0.374	0.441	0.334	0.346	0.594	0.592	0.543	0.562	0.496	0.264	0.384	0.314	0.268	0.3
NCI-H1651	0.523	0.556	0.562	0.431	0.558	0.639	0.454	0.611	0.537	0.451	0.398	0.386	0.423	0.41	0.433	0.185	0.201	0.254	0.229	0.211
NCI-H2023	0.503	0.404	0.424	0.358	0.376	0.411	0.326	0.302	0.271	0.215	0.18	0.174	0.201	0.19	0.142	0.276	0.294	0.253	0.256	0.296
COR-L 105	0.775	0.71	0.787	0.709	0.952	0.585	0.526	0.489	0.567	0.518	0.9	0.806	0.75	0.792	0.716	0.649	0.627	0.497	0.581	0.516
NCI-H1734	0.495	0.529	0.479	0.467	0.541	0.449	0.398	0.466	0.399	0.463	0.407	0.435	0.461	0.385	0.406	0.448	0.409	0.456	0.406	0.407
NCI-H3122	0.818	0.621	0.351	0.494	0.801	0.587	0.549	0.325	0.59	0.363	0.198	0.232	0.228	0.208	0.201	0.638	0.643	0.497	0.476	0.579
CAL-12T	0.628	0.686	0.651	0.792	0.821	0.378	0.464	0.266	0.351	0.46	0.572	0.58	0.664	0.653	0.627	0.527	0.486	0.483	0.473	0.379
HCC-78	0.496	0.477	0.447	0.51	0.391	0.244	0.244	0.213	0.234	0.228	0.902	0.929	0.873	0.914	0.93	0.827	0.43	0.657	0.717	0.678
NCI-H2085	0.812	0.584	0.617	0.777	0.695	0.668	0.616	0.577	0.622	0.571	0.655	0.652	0.493	0.624	0.63	0.704	0.75	0.698	0.705	0.583
